# Experimental data reported in the kinase profiling compilation of Christmann-Franck et al. (2016).
# Key:
# Test in all cases: radiometric filter-binding kinase assay, Kinase HotSpot
# Conditions in all cases: compound 0.5 µM; ATP 10 µM
# EPHA8 (human) = EPHA8 (human) (UniProt P29322)
# DYRK1A (human) = DYRK1A (human) (UniProt Q13627)
# CSK (human) = CSK (human) (UniProt P41240)
# CDK5 CDK5R1 p25 (human) = CDK5 CDK5R1 p25 (human) (UniProt Q00535+Q15078)
# PRKCI (human) = PRKCI (human) (UniProt P41743)
# MAP2K2 (human) = MAP2K2 (human) (UniProt P36507)
# PRKCG (human) = PRKCG (human) (UniProt P05129)
# MYLK2 (human) = MYLK2 (human) (UniProt Q9H1R3)
# GSK3B (human) = GSK3B (human) (UniProt P49841)
# MATK (human) = MATK (human) (UniProt P42679)
# PASK (human) = PASK (human) (UniProt Q96RG2)
# MAPKAPK2 (human) = MAPKAPK2 (human) (UniProt P49137)
# CSNK1D (human) = CSNK1D (human) (UniProt P48730)
# IRAK1 (human) = IRAK1 (human) (UniProt P51617)
# WNK3 (human) = WNK3 (human) (UniProt Q9BYP7)
# MAPK13 (human) = MAPK13 (human) (UniProt O15264)
# EPHB3 (human) = EPHB3 (human) (UniProt P54753)
# AURKC (human) = AURKC (human) (UniProt Q9UQB9)
# WNK2 (human) = WNK2 (human) (UniProt Q9Y3S1)
# BMX (human) = BMX (human) (UniProt P51813)
# FGFR4 (human) = FGFR4 (human) (UniProt P22455)
# IKBKE (human) = IKBKE (human) (UniProt Q14164)
# MARK4 (human) = MARK4 (human) (UniProt Q96L34)
# MERTK (human) = MERTK (human) (UniProt Q12866)
# BRSK1 (human) = BRSK1 (human) (UniProt Q8TDC3)
# SGK3 (human) = SGK3 (human) (UniProt Q96BR1)
# PDPK1 (human) = PDPK1 (human) (UniProt O15530)
# HIPK1 (human) = HIPK1 (human) (UniProt Q86Z02)
# PKN1 (human) = PKN1 (human) (UniProt Q16512)
# ABL2 (human) = ABL2 (human) (UniProt P42684)
# ERBB4 (human) = ERBB4 (human) (UniProt Q15303)
# CLK3 (human) = CLK3 (human) (UniProt P49761)
# MAPK14 (human) = MAPK14 (human) (UniProt Q16539)
# CDK9 CCNK (human) = CDK9 CCNK (human) (UniProt O75909+P50750)
# CAMKK2 (human) = CAMKK2 (human) (UniProt Q96RR4)
# NEK2 (human) = NEK2 (human) (UniProt P51955)
# DMPK (human) = DMPK (human) (UniProt Q09013)
# IGF1R (human) = IGF1R (human) (UniProt P08069)
# MARK3 (human) = MARK3 (human) (UniProt P27448)
# EPHA4 (human) = EPHA4 (human) (UniProt P54764)
# STK17A (human) = STK17A (human) (UniProt Q9UEE5)
# MAP2K1 (human) = MAP2K1 (human) (UniProt Q02750)
# Chain of AURKC (human) (Q9UQB9 whole entry, looked up): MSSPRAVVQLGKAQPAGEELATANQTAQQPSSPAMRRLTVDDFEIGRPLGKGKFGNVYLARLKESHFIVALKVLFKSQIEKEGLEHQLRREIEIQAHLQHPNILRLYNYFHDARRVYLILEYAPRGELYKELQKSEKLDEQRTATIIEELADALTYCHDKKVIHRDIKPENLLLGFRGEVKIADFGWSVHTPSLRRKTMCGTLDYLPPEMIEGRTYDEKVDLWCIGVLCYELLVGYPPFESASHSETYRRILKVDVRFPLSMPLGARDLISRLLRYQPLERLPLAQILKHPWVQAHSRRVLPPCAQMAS
# Chain of MAPKAPK2 (human) (P49137 whole entry, looked up): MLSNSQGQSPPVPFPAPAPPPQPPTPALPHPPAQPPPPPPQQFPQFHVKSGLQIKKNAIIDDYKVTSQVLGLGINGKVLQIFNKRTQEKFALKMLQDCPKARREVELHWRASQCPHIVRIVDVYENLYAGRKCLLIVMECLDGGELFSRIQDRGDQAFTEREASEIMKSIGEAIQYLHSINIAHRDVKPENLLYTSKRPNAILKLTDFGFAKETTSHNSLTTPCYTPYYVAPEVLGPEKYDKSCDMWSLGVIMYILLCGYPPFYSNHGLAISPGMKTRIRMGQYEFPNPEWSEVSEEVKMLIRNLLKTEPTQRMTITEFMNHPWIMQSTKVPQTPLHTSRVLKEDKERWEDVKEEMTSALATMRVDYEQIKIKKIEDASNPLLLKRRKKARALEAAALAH
# Chain of EPHA4 (human) (P54764 whole entry, looked up): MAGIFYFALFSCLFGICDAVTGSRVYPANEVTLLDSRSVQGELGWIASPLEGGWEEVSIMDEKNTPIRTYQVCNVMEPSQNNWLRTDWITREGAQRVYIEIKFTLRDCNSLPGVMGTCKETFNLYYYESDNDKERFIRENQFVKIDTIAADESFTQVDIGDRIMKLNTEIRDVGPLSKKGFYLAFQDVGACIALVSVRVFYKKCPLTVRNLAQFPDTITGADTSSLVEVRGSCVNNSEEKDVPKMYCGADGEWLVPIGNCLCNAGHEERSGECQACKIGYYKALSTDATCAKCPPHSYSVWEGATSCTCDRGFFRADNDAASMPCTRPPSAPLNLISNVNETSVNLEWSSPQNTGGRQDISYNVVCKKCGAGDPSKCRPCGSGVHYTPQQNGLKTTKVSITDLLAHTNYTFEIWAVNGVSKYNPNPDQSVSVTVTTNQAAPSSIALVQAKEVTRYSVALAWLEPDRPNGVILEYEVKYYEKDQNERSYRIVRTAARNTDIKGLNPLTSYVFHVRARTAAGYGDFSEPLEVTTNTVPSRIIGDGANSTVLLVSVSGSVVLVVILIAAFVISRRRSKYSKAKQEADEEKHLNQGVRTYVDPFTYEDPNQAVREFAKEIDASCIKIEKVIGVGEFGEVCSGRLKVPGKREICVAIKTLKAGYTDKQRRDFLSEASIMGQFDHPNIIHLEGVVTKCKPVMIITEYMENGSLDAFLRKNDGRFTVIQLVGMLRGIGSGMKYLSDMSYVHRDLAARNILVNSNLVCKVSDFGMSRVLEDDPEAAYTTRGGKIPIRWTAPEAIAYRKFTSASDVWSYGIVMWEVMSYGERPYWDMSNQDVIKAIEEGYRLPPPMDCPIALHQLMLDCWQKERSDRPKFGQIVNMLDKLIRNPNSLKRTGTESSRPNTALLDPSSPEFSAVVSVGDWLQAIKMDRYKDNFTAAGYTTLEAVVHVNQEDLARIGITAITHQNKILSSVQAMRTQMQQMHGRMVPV
# Chain of EPHA8 (human) (P29322 whole entry, looked up): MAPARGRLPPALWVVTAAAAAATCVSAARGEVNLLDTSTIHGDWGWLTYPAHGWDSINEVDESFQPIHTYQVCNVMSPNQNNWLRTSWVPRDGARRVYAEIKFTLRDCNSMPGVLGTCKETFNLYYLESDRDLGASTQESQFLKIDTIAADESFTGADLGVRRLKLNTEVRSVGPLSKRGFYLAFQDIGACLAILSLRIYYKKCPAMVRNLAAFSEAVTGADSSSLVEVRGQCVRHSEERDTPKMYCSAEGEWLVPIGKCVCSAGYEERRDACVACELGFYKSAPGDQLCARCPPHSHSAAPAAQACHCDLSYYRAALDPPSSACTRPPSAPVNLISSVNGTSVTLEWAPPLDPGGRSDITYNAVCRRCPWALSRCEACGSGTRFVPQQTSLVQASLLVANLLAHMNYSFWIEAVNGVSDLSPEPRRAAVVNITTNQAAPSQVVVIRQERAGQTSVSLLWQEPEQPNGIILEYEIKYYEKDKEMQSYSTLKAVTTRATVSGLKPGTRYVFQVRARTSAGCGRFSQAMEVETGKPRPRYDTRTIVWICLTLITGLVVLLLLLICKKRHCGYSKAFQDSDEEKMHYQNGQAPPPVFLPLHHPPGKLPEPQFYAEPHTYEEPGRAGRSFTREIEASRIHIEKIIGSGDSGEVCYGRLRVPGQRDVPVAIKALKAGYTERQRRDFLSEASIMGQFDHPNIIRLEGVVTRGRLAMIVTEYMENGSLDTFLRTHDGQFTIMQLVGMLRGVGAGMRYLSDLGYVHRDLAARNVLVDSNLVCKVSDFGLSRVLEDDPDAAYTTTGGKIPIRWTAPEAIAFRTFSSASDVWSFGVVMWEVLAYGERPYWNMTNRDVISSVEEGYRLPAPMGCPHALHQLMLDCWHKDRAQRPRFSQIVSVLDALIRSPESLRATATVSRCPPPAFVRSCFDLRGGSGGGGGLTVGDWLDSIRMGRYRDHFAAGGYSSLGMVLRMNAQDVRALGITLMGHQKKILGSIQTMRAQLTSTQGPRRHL
# Chain of WNK3 (human) (Q9BYP7 whole entry, looked up): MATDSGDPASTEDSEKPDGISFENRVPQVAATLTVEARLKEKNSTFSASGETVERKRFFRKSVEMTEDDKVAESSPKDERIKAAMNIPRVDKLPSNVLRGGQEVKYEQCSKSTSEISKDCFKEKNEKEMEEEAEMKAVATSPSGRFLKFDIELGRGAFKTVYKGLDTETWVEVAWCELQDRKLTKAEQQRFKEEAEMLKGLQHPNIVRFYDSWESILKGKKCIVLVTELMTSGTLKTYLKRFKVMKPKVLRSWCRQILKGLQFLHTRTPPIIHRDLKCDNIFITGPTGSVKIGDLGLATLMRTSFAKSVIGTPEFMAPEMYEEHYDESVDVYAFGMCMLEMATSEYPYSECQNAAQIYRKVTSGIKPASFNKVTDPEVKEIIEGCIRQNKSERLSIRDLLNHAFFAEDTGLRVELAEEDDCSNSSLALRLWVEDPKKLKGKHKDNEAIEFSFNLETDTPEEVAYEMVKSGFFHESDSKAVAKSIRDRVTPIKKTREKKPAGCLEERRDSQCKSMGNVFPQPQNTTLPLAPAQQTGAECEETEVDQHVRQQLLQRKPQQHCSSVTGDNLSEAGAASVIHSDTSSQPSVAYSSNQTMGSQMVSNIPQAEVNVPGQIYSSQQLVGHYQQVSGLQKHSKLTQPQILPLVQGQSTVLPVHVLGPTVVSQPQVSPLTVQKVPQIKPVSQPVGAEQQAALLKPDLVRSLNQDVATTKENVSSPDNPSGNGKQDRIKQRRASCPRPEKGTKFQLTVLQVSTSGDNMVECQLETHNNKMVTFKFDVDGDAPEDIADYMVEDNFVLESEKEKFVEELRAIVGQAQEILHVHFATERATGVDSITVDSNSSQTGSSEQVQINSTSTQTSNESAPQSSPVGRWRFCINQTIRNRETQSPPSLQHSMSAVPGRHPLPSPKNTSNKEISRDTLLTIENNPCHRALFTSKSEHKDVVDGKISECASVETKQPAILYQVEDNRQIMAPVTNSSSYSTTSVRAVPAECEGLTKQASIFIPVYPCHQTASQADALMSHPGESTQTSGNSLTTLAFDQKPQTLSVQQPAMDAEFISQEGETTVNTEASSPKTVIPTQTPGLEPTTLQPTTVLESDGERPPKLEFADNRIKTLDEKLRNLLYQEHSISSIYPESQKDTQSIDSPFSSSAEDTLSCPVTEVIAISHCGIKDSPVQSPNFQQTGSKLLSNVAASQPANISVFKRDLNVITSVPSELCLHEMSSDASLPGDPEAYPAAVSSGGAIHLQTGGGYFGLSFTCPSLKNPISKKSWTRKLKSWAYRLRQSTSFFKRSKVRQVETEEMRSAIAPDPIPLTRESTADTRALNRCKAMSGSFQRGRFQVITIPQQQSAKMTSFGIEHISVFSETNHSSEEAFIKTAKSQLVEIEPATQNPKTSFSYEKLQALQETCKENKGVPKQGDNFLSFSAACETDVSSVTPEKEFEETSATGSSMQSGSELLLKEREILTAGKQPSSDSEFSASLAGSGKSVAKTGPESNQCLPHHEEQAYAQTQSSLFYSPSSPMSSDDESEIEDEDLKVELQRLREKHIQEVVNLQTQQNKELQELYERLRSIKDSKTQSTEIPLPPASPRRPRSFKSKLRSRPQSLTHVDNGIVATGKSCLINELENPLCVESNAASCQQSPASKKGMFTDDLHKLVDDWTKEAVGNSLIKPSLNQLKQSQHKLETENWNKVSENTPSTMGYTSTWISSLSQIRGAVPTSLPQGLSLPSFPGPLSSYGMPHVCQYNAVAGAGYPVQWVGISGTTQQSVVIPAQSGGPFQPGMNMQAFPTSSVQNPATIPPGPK
# Chain of GSK3B (human) (P49841 whole entry, looked up): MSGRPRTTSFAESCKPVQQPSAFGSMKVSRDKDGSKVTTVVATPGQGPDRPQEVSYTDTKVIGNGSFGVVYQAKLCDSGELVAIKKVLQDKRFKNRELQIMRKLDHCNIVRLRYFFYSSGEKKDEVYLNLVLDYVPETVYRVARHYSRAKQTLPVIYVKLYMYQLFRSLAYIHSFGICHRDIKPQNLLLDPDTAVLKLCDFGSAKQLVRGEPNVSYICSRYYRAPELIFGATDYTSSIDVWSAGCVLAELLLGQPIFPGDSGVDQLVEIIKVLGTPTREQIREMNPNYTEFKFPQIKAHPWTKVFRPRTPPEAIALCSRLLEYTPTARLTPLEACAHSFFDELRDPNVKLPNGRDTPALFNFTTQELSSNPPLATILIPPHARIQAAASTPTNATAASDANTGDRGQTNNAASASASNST
compound,measurement,setting,value
CSc1nc(-c2ccc(F)cc2)c(-c2ccnc(NC(C)c3ccccc3)c2)[nH]1 (stereo unspecified),residual activity,EPHA8 (human),82.2%
same,residual activity,DYRK1A (human),97.9%
same,residual activity,CSK (human),82.4%
same,residual activity,CDK5 CDK5R1 p25 (human),76.1%
same,residual activity,PRKCI (human),91.9%
same,residual activity,MAP2K2 (human),78.6%
same,residual activity,PRKCG (human),101%
same,residual activity,MYLK2 (human),102%
same,residual activity,GSK3B (human),97.9%
same,residual activity,MATK (human),87%
same,residual activity,PASK (human),95.7%
same,residual activity,MAPKAPK2 (human),106%
same,residual activity,CSNK1D (human),41.9%
same,residual activity,IRAK1 (human),103%
same,residual activity,WNK3 (human),97.6%
same,residual activity,MAPK13 (human),93.9%
same,residual activity,EPHB3 (human),94%
same,residual activity,AURKC (human),100%
same,residual activity,WNK2 (human),118%
same,residual activity,BMX (human),102%
same,residual activity,FGFR4 (human),102%
same,residual activity,IKBKE (human),84%
same,residual activity,MARK4 (human),74.6%
same,residual activity,MERTK (human),93.1%
same,residual activity,BRSK1 (human),84.6%
same,residual activity,SGK3 (human),103%
same,residual activity,PDPK1 (human),91.3%
same,residual activity,HIPK1 (human),110%
same,residual activity,PKN1 (human),105%
same,residual activity,ABL2 (human),95.7%
same,residual activity,ERBB4 (human),98.4%
same,residual activity,CLK3 (human),85.4%
same,residual activity,MAPK14 (human),7.64%
same,residual activity,CDK9 CCNK (human),91.1%
same,residual activity,CAMKK2 (human),84%
same,residual activity,NEK2 (human),89.9%
same,residual activity,DMPK (human),80%
same,residual activity,IGF1R (human),101%
same,residual activity,MARK3 (human),100%
same,residual activity,EPHA4 (human),93.1%
same,residual activity,STK17A (human),97.8%
same,residual activity,MAP2K1 (human),93.9%
COc1cc2ncnc(Nc3ccc(F)c(Cl)c3)c2cc1OCCCN1CCOCC1,residual activity,EPHA8 (human),84.5%
same,residual activity,DYRK1A (human),101%
same,residual activity,CSK (human),95.4%
same,residual activity,CDK5 CDK5R1 p25 (human),95.4%
same,residual activity,PRKCI (human),96.9%
same,residual activity,MAP2K2 (human),102%
same,residual activity,PRKCG (human),84.2%
same,residual activity,MYLK2 (human),99.2%
same,residual activity,GSK3B (human),100%
same,residual activity,MATK (human),86.4%
same,residual activity,PASK (human),97.9%
same,residual activity,MAPKAPK2 (human),97.5%
same,residual activity,CSNK1D (human),90.4%
same,residual activity,IRAK1 (human),57.6%
same,residual activity,WNK3 (human),102%
same,residual activity,MAPK13 (human),94.7%
same,residual activity,EPHB3 (human),57.5%
same,residual activity,AURKC (human),89.7%
same,residual activity,WNK2 (human),97.2%
same,residual activity,BMX (human),102%
same,residual activity,FGFR4 (human),92.4%
same,residual activity,IKBKE (human),89.9%
same,residual activity,MARK4 (human),94.2%
same,residual activity,MERTK (human),95.9%
same,residual activity,BRSK1 (human),92.5%
same,residual activity,SGK3 (human),98.3%
same,residual activity,PDPK1 (human),88.2%
same,residual activity,HIPK1 (human),97.6%
same,residual activity,PKN1 (human),105%
same,residual activity,ABL2 (human),72%
same,residual activity,ERBB4 (human),24.2%
same,residual activity,CLK3 (human),106%
same,residual activity,MAPK14 (human),74.6%
same,residual activity,CDK9 CCNK (human),99.3%
same,residual activity,CAMKK2 (human),103%
same,residual activity,NEK2 (human),98.4%
same,residual activity,DMPK (human),90.1%
same,residual activity,IGF1R (human),92.3%
same,residual activity,MARK3 (human),94.5%
same,residual activity,EPHA4 (human),90.2%
same,residual activity,STK17A (human),96%
same,residual activity,MAP2K1 (human),107%
O=c1cc(-c2cccc3c2Sc2ccccc2S3)oc(N2CCOCC2)c1,residual activity,EPHA8 (human),110%
same,residual activity,DYRK1A (human),95%
same,residual activity,CSK (human),95.7%
same,residual activity,CDK5 CDK5R1 p25 (human),96.8%
same,residual activity,PRKCI (human),103%
same,residual activity,MAP2K2 (human),81.8%
same,residual activity,PRKCG (human),96.9%
same,residual activity,MYLK2 (human),97.4%
same,residual activity,GSK3B (human),98.7%
same,residual activity,MATK (human),102%
same,residual activity,PASK (human),101%
same,residual activity,MAPKAPK2 (human),94.2%
same,residual activity,CSNK1D (human),106%
same,residual activity,IRAK1 (human),103%
same,residual activity,WNK3 (human),109%
same,residual activity,MAPK13 (human),101%
same,residual activity,EPHB3 (human),105%
same,residual activity,AURKC (human),84.9%
same,residual activity,WNK2 (human),116%
same,residual activity,BMX (human),112%
same,residual activity,FGFR4 (human),100%
same,residual activity,IKBKE (human),96.5%
same,residual activity,MARK4 (human),100%
same,residual activity,MERTK (human),97%
same,residual activity,BRSK1 (human),98.2%
same,residual activity,SGK3 (human),98.6%
same,residual activity,PDPK1 (human),104%
same,residual activity,HIPK1 (human),99.6%
same,residual activity,PKN1 (human),94.4%
same,residual activity,ABL2 (human),92%
same,residual activity,ERBB4 (human),105%
same,residual activity,CLK3 (human),121%
same,residual activity,MAPK14 (human),99.3%
same,residual activity,CDK9 CCNK (human),109%
same,residual activity,CAMKK2 (human),133%
same,residual activity,NEK2 (human),103%
same,residual activity,DMPK (human),94.8%
same,residual activity,IGF1R (human),98.2%
same,residual activity,MARK3 (human),106%
same,residual activity,EPHA4 (human),101%
same,residual activity,STK17A (human),98.2%
same,residual activity,MAP2K1 (human),94.9%
